For test [1], the target named is T1, cGMP-dependent protein kinase 1 (Homo sapiens) (UniProt Q13976).
T1 sequence (whole entry): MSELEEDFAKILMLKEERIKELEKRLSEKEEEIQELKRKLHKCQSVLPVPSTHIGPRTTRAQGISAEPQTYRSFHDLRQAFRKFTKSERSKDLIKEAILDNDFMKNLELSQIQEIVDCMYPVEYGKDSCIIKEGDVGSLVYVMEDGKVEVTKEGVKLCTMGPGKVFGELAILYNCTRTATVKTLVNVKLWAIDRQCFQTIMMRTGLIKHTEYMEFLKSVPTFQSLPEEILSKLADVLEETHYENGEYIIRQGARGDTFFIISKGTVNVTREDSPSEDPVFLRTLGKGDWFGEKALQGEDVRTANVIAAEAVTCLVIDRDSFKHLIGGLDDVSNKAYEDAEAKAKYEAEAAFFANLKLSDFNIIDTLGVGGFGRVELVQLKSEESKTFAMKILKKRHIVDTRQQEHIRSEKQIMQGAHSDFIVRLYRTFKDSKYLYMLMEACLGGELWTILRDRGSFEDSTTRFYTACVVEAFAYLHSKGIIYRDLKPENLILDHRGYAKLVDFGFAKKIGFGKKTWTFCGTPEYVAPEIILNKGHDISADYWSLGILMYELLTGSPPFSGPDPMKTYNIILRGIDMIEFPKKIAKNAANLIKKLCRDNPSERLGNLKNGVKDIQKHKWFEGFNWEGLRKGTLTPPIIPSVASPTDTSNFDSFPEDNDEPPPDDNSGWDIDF
Description: Inhibition of human full length PKG-1a expressed in baculovirus assessed as substrate phosphorylation using fluorescence-labelled peptides as substrate at 0.2 uM after 90 mins by microfluidic peptide phosphorylation assay.

Test [2] relates to Fibroblast growth factor receptor 2 (Homo sapiens), P21802 [N549H]. The test can be described thus: Inhibition of human FGFR2 N549H mutant catalytic domain expressed in baculovirus assessed as substrate phosphorylation using fluorescence-labelled peptides as substrate at 420 uM after 90 mins by microfluidic peptide phosphorylation assay.
Test [3] addresses Ribosomal protein S6 kinase alpha-2 (Homo sapiens) (UniProt Q15349). The test can be described thus: Inhibition of human full length RSK3 expressed in baculovirus assessed as substrate phosphorylation using fluorescence-labelled peptides as substrate at 420 uM after 90 mins by microfluidic peptide phosphorylation assay.
The species entered for the next test is Homo sapiens. Description: Inhibition of human P70S6K catalytic domain expressed in baculovirus assessed as substrate phosphorylation using fluorescence-labelled peptides as substrate at 95 uM after 90 mins by microfluidic peptide phosphorylation assay.
Test [4] addresses T2, Serine/threonine-protein kinase Chk1 (Homo sapiens) (UniProt O14757).
T2 sequence (whole entry): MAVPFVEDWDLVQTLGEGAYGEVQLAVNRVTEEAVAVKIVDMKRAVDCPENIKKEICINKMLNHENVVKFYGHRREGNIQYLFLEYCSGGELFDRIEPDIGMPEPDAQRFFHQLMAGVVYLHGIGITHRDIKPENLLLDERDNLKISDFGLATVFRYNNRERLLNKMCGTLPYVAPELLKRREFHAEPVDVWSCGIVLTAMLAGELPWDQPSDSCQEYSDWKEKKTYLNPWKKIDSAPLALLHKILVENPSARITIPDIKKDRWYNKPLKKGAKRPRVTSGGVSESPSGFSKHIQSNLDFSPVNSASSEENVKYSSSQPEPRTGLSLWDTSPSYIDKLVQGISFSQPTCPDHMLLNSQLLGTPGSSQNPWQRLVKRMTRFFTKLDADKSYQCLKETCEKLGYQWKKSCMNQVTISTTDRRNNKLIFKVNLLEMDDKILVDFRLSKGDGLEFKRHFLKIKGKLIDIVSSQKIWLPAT
Description: Inhibition of human full length CHK1 expressed in baculovirus assessed as substrate phosphorylation using fluorescence-labelled peptides as substrate at 8 uM after 90 mins by microfluidic peptide phosphorylation assay.

Test [5] deals with Calcium/calmodulin-dependent protein kinase type II subunit gamma (Homo sapiens) (UniProt Q13555). Description: Inhibition of human CAMK2 gamma catalytic domain expressed in baculovirus assessed as substrate phosphorylation using fluorescence-labelled peptides as substrate at 8 uM after 90 mins by microfluidic peptide phosphorylation assay.
Chain of Calcium/calmodulin-dependent protein kinase type II subunit gamma (Homo sapiens) (Q13555 whole entry, the tested form may be a part): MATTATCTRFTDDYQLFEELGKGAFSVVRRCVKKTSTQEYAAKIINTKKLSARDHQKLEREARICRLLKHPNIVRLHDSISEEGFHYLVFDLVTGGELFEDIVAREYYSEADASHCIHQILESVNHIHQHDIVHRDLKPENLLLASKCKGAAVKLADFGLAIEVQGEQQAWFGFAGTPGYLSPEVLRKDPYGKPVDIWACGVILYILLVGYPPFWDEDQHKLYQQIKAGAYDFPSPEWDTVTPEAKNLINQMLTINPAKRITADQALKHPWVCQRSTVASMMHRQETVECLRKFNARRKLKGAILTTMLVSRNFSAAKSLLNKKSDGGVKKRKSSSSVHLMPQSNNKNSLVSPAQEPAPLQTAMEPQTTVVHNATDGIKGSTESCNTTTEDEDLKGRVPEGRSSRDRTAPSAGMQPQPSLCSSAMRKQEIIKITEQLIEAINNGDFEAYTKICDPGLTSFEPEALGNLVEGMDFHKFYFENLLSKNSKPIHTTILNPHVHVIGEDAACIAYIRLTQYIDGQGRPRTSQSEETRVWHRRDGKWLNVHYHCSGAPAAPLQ
For test [6], the target named is Tyrosine-protein kinase ABL1 (Homo sapiens) (UniProt P00519). The test can be described thus: Inhibition of human full-length ABL expressed in baculovirus assessed as substrate phosphorylation using fluorescence-labelled peptides as substrate at 1000 uM after 90 mins by microfluidic peptide phosphorylation assay.
Chain of Tyrosine-protein kinase ABL1 (Homo sapiens) (P00519 whole entry): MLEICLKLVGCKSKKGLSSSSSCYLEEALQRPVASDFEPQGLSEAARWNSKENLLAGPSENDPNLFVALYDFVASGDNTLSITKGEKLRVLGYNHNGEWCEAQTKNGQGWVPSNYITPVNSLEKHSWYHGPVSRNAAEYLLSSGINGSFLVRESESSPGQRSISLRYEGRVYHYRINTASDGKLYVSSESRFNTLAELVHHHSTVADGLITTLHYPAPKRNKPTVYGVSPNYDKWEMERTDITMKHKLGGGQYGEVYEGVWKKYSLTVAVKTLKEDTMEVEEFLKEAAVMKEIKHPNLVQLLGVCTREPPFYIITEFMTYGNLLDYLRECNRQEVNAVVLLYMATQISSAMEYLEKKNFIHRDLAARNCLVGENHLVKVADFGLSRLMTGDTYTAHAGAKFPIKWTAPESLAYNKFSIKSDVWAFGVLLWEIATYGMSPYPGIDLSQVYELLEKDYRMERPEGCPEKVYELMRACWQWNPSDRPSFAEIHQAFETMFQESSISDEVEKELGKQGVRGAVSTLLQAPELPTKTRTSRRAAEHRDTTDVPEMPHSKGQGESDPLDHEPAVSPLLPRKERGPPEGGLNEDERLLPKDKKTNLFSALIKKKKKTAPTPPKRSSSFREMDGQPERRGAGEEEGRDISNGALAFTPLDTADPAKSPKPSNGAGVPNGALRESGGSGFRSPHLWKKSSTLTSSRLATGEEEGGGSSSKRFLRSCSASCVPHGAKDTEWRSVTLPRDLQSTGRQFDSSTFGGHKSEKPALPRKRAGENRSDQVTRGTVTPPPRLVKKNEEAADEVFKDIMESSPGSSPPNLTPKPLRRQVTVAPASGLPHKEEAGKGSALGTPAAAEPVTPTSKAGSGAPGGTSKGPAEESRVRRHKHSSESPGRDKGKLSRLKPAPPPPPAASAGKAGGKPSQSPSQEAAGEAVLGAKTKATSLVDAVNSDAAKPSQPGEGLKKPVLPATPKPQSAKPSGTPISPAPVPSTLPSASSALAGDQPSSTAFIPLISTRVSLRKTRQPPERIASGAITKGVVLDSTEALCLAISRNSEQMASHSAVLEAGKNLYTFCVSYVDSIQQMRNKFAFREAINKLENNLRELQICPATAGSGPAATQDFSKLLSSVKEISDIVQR
Test [7] has as its target MAP kinase p38 (Homo sapiens) (UniProt O15264+Q15759+Q16539+P53778). The test can be described thus: Inhibition of human full length p38 beta2 expressed in Escherichia coli cell assessed as substrate phosphorylation using fluorescence-labelled peptides as substrate at 0.06 uM after 90 mins by microfluidic peptide phosphorylation assay.
In test [8] the target is Tyrosine-protein kinase ABL1 (Homo sapiens) (UniProt P00519). Description: Inhibition of human full-length ABL expressed in baculovirus assessed as substrate phosphorylation using fluorescence-labelled peptides as substrate at 2 uM after 90 mins by microfluidic peptide phosphorylation assay.
In test [9] the target is MAP/microtubule affinity-regulating kinase 3 (Homo sapiens) (UniProt P27448). Description: Inhibition of human full length c-TAK1 expressed in Escherichia coli cell assessed as substrate phosphorylation using fluorescence-labelled peptides as substrate at 70 uM after 90 mins by microfluidic peptide phosphorylation assay.
In test [10] the target is Mitogen-activated protein kinase 14 (Homo sapiens) (UniProt Q16539). The test can be described thus: Inhibition of human truncated p38 alpha expressed in Escherichia coli cell assessed as substrate phosphorylation using fluorescence-labelled peptides as substrate at 70 uM after 90 mins by microfluidic peptide phosphorylation assay.
Chain of Mitogen-activated protein kinase 14 (Homo sapiens) (Q16539 whole entry, the tested form may be a part): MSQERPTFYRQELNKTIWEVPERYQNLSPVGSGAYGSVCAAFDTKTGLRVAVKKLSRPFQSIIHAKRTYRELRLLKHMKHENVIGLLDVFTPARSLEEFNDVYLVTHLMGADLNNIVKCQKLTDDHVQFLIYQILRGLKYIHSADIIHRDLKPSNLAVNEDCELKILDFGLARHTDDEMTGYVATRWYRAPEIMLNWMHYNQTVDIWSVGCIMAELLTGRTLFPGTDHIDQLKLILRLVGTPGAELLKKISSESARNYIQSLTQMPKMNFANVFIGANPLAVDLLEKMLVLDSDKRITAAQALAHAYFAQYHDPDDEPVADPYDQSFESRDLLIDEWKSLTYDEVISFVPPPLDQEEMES
Test [11] addresses Serine/threonine-protein kinase Chk2 (Homo sapiens) (UniProt O96017). The test can be described thus: Inhibition of human full length CHK2 expressed in baculovirus assessed as substrate phosphorylation using fluorescence-labelled peptides as substrate at 70 uM after 90 mins by microfluidic peptide phosphorylation assay.

Structures are written as SMILES.

Experimental findings from ChEMBL document CHEMBL3132769, “Fragment growing to retain or alter the selectivity of anchored kinase hinge-binding fragments” (Medchemcomm, 2014) are described below.

Chain of MAP kinase p38 (Homo sapiens) (O15264 whole entry, looked up): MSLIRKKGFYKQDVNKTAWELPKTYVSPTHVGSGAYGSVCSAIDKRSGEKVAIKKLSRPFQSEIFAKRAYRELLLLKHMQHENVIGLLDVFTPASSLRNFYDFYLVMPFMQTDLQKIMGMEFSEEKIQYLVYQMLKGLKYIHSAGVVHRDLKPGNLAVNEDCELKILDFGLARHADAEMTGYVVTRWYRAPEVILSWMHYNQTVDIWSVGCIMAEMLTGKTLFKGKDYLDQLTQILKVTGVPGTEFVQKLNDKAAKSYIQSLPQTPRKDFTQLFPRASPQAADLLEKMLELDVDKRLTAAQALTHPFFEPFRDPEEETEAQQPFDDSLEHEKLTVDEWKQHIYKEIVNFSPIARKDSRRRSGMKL
Chain of MAP kinase p38 (Homo sapiens) (P53778 whole entry, looked up): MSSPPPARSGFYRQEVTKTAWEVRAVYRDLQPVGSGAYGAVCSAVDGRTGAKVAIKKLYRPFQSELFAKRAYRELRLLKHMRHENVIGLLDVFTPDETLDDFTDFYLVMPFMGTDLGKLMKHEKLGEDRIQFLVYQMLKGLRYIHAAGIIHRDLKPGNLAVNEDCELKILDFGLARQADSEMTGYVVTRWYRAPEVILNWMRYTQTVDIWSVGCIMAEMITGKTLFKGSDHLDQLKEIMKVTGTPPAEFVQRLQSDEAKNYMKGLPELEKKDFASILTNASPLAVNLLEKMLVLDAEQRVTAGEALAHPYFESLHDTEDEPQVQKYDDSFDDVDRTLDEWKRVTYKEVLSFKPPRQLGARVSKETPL
Chain of MAP kinase p38 (Homo sapiens) (Q15759 whole entry, looked up): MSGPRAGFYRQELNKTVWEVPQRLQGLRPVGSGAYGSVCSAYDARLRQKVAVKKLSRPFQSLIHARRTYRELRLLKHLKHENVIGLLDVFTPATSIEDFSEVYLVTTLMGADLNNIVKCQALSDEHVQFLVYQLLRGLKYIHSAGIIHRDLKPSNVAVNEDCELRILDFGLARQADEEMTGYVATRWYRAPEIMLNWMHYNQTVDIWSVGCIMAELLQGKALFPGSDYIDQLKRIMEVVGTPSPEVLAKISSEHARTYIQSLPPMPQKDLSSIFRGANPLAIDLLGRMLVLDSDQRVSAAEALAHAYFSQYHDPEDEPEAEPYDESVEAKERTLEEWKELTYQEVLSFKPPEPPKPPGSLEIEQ
Chain of MAP kinase p38 (Homo sapiens) (Q16539 whole entry, looked up): as the sequence (Q16539 whole entry, the tested form may be a part) above
Chain of Ribosomal protein S6 kinase alpha-2 (Homo sapiens) (Q15349 whole entry, the tested form may be a part): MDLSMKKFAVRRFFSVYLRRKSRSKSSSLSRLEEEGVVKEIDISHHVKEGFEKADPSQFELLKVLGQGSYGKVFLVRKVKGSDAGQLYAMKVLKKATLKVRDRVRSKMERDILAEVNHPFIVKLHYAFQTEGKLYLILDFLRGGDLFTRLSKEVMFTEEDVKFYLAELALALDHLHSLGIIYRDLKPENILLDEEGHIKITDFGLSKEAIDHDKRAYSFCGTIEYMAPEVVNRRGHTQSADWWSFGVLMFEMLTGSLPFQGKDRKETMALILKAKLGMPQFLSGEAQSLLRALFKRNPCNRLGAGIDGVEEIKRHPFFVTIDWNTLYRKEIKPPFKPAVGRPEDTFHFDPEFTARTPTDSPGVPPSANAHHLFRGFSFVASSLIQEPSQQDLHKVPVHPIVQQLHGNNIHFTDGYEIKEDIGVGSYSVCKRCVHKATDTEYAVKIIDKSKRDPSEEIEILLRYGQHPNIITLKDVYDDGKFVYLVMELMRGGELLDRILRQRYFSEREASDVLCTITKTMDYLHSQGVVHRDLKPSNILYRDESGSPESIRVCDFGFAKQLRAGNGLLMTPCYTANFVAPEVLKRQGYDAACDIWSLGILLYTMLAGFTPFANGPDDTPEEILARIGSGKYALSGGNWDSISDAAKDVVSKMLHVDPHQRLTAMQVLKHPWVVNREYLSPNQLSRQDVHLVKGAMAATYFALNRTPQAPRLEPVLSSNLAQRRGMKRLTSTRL
Chain of Serine/threonine-protein kinase Chk2 (Homo sapiens) (O96017 whole entry): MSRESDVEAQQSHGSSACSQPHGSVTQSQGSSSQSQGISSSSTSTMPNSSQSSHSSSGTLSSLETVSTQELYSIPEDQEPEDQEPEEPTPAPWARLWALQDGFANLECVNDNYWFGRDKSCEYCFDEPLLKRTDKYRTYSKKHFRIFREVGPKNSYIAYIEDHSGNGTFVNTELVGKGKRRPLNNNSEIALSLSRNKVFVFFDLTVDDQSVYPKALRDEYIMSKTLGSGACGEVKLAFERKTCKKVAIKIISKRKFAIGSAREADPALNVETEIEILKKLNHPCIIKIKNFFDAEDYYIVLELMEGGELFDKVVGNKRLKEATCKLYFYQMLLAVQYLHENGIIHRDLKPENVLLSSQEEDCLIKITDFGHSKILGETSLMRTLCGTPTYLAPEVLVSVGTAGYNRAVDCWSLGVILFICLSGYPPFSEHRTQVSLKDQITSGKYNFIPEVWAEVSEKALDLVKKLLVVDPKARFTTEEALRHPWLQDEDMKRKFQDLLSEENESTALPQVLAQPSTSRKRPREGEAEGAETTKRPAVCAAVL

Turning to `Clc1ccc(C2(c3ccc(-c4ncnc5[nH]cnc45)cc3)CCNCC2)cc1`, in [1], the inhibition was found to be 88.5%.

Regarding `c1nc(N2CCOCC2)c2nc[nH]c2n1`, the values for the inhibition in test [2] and in test [3] were 89.5% and 98%, respectively.

`NCCc1ccc(-c2ncnc3[nH]cnc23)cc1`: the inhibition in the test filed under Homo sapiens turned out to be 49%.

`NCC1CCN(c2ncnc3[nH]ccc23)CC1`: the inhibition is 0% in test [4] and 20.5% in test [5].

As for `c1cnc2[nH]ccc2c1`, the inhibition in test [6] stood at 42%.

Regarding `NC1(Cc2ccc(Cl)cc2)CCN(c2ncnc3[nH]ccc23)CC1`, the inhibition in [7] came to 9%.

Regarding `NC1CCN(c2ncnc3[nH]ccc23)CC1`, the inhibition in test [8] was 13.5%.

Take `CNCc1ccc(-c2ncnc3[nH]cnc23)cc1`: the inhibition in test [9] was 6.5%; in test [10], 0%; in [11] it was 57.5%.

By inhibition is commonly meant the change of the read-out against control, counted positive when it falls.
